Reference: patent US20200009118A1, “COMPOSITIONS AND METHODS FOR THE TREATMENTOF NEURODEGENERATIVE AND OTHER DISEASES” (Glialogix, Inc., priority 2017, published 2020)

Tested on: activated microglial cells
Test: Microglial activation (anti-F4/80 area fraction) in spinal cord ventral horn of SOD1 mice
Type: in vivo, mouse
Conditions: Microglia
Text: The same test mice, spinal cord preparations and methods of analysis used in the neuroinflammatory study were identical to those used in the xCT quantitation study. Two neuroinflammatory cell populations were quantitated: (1) activated microglial cells using an antibody to the F4/80 antigen, and (2) activated astrocytes, using an antibody to the GFAP antigen. For each objective image, light parameters were optimized and kept consistent across all sections. Images that were captured at 20× were then imported into ImageJ freeware (NIH, Bethesda, Md.). A maximum entropy threshold algorithm was applied to all images in a completely blinded fashion to filter out all pixels that were not stained as DAB positive. 20× images were analyzed in a blinded fashion and mean area fraction occupied by stain was tabulated. Levels of neuroinflammation in the spinal cord were assessed by measuring the area fraction of the area of the ventral horn in the spinal cord occupied by activated astrocytes or microglia. Area fraction was compared with respect to treatment using 1-way ANOVA analysis, with a p-value of 0.05 considered significant.
For quantitation of microglial activation, samples were pretreated with Pronase for 20 minutes at RT, followed by treatment with 3% H2O2 for 12 minutes at RT (25° C.). Goat serum was added to 2% and samples incubated for 20 minutes at RT. The samples were then incubated with the primary antibody (Anti-F4/80) purchased from Serotec (Catalog # MCA497R; Oxford, United Kingdom), diluted 1:250 in PBS overnight at 4° C. The secondary antibody (Biotin labeled […]; 1:250 dilution in PBS) was then added and the reaction incubated 1 hour at RT. Reaction products were developed using the Vector ABC system (Vector Labs, Burlingame, Calif.) using avidin-conjugated horseradish peroxidase (45 minutes at RT). Activated microglia were visualized by addition of the chromogenic substrate DAB (3,3′-diaminobenzidine) for 6 minutes at RT.

O=C(O)c1cc(/N=N/c2ccc(S(=O)(=O)Nc3ccccn3)cc2)ccc1O [Sulfasalazine, 2-hydroxy-5-[(E)-2-{4-[(pyridin-2-yl)sulfamoyl]phenyl}diazen-1-yl]benzoic acid]
Decreased activation vs. vehicle treated SOD1 mice (Cervical, day 85, listed as Sulfasalazine formulation): significantly decreased microglial activation
Decreased activation vs. vehicle treated SOD1 mice (Cervical, day 85, listed as sulfasalazine formulation): Strong decrease (p < 0.01)
Decreased activation vs. vehicle treated SOD1 mice (Cervical, day 100, listed as Sulfasalazine formulation): trend towards decreased microglial activation
Decreased activation vs. vehicle treated SOD1 mice (Cervical, day 100, listed as sulfasalazine formulation): Trend
Decreased activation vs. vehicle treated SOD1 mice (Combined, day 85): Trend
Decreased activation vs. vehicle treated SOD1 mice (Combined, day 100): No decrease
Decreased activation vs. vehicle treated SOD1 mice (Lumbar, day 85, listed as Sulfasalazine formulation): reduced microglial activation
Decreased activation vs. vehicle treated SOD1 mice (Lumbar, day 85, listed as sulfasalazine formulation): Trend
Decreased activation vs. vehicle treated SOD1 mice (Lumbar, day 100, listed as Sulfasalazine formulation): did not affect such activation
Decreased activation vs. vehicle treated SOD1 mice (Lumbar, day 100, listed as sulfasalazine formulation): No decrease
Decreased activation vs. vehicle treated SOD1 mice (Thoracic, day 85): No decrease
Decreased activation vs. vehicle treated SOD1 mice (Thoracic, day 100): No decrease
